This series can be described thus: Fluorescence properties of DHP-cyanine dyes (excitation/absorbance and emission maxima, extinction coefficient). Format: physicochemical. The settings on record: for λem (emission wavelength) / λex (maximum excitation wavelength): Table 1. The text has this:
The term “absorbance maxima” or “Abs λ max” or “max λ abs” refer to wavelength of maximum absorbance measured by UV Vis spectroscopy.

Turning to `CC1(C)C(/C=C/C=C/C=C2\N(CCCS(=O)(=O)O)c3ccc(C(=O)O)cc3C2(C)C)=[N+](CCCS(=O)(=O)O)c2cc3c4c(c21)CCc1cc(S(=O)(=O)[O-])cc(c1-4)S3(=O)=O` [Compound 25, (Z)-2-((2E,4E)-5-(2-((l1-oxidaneyl)dioxo-l6-sulfaneyl)-6-(3-((l1-oxidaneyl)dioxo-l6-sulfaneyl)propyl)-8,8-dimethyl-4,4-dioxido-9,10-dihydro-8H-6l4-thieno[2′,3′,4′,5′:4,5]phenanthro[2,1-b]pyrrol-7-yl)penta-2,4-dien-1-ylidene)-1-(3-((l1-oxidaneyl)dioxo-l6-sulfaneyl)propyl)-3,3-dimethylindoline-5-carboxylic Acid], the “λem (emission wavelength)” value turned out to be 686 nm and the “λex (maximum excitation wavelength)” value came out at 666 nm. In addition, for the setting “purified dye”, the Abs max was 666 nm, the emission max stood at 686 nm and the extinction coefficient was determined as 150450 M⁻¹ cm⁻¹.
Turning to `CC1(C)Cc2c3c(cc4c2C(C)(C)C(/C=C/C=C/C=C2\N(CCCCCC(=O)O)c5ccc(S(=O)(=O)O)cc5C2(C)C)=[N+]4CCCS(=O)(=O)O)S(=O)(=O)c2cc(S(=O)(=O)O)cc1c2-3` [Compound 36, 2-((l1-oxidaneyl)dioxo-l6-sulfaneyl)-7-((1E,3E)-5-((Z)-5-((l1-oxidaneyl)dioxo-l6-sulfaneyl)-1-(5-carboxypentyl)-3,3-dimethylindolin-2-ylidene)penta-1,3-dien-1-yl)-6-(3-((l1-oxidaneyl)dioxo-l6-sulfaneyl)propyl)-8,8,10,10-tetramethyl-9,10-dihydro-8H-thieno[2′,3′,4′,5′:4,5]phenanthro[2,1-b]pyrrol-6-ium 4,4-dioxide], the “λem (emission wavelength)” value was determined as 683 nm and the “λex (maximum excitation wavelength)” value was 663 nm. For the setting “purified dye”, the Abs max is 663 nm and the emission max was 683 nm.

Source of the values: patent US20250383357A1, “NOVEL FLUORESCENT DYES AND POLYMERS FROM DIHYDROPHENANTHRENE DERIVATIVES” (Beckman Coulter, Inc., priority 2022, published 2025).
